{"source": "paper PMC8557901", "about": "(Microbiology Spectrum, 2021)", "key": {"[1]": {"system": "P. falciparum F32-ART5 quiescent parasites", "test": "Quiescent-stage survival assay (QSA)", "type": "cell-based, Plasmodium falciparum", "details": "artemisinin 3 μM 6 h then artemisinin + M1 2.5 μM 24 h versus artemisinin alone; 6-day threshold = active", "description": "The Plasmodium falciparum artemisinin-resistant strain F32-ART5 and its twin artemisinin-sensitive line F32-TEM ([30], [31]) were cultivated at 37°C with 5% CO2 in human red blood cells (EFS [French Blood Bank]) diluted to 2% hematocrit in RPMI 1640 medium supplemented with 5% human serum (EFS) as previously reported ([47]).\nChemosensitivity evaluation of artemisinin-resistant parasites at the quiescent stage was performed on the F32-ART5 strain using the quiescent-stage survival assay (QSA) ([33]). D-Sorbitol-synchronized ring-stage parasites at 3% parasitemia (2% hematocrit) were first exposed to 3 μM artemisinin for 6 h to induce quiescence of artemisinin-resistant parasites. Then, quiescent parasites were exposed or not (as a control condition) to 2.5 μM M1 for 24 h. After drug exposure, parasite cultures were washed with RPMI 1640 medium and replaced in normal drug-free culture conditions. The time to parasite recrudescence was determined as the time required to reach initial parasitemia. […] In each experiment, results obtained with the condition “artemisinin 3 μM 6 h/artemisinin 3 μM 24 h” were compared to those obtained with the condition “artemisinin 3 μM 6 h/(artemisinin 3 μM + M1 2.5 μM) 24 h” in order to determine the delay in recrudescence time. […] Each experiment was carried out three times independently, and data statistically analyzed. […]"}, "[2]": {"system": "P. yoelii in HepG2-CD81 cells", "design": "method as in PMID 25791675", "details": "liver stage of Plasmodium yoelii infecting HepG2-CD81 cells; cited from earlier work"}, "[3]": {"test": "MTT cell viability assay, simian primary hepatocytes", "type": "cell-based", "details": "Macaca fascicularis (cynomolgus monkey), primary hepatocytes (cryopreserved)", "from_the_text": "Primary human hepatocytes were isolated from liver segments obtained from adult patients undergoing partial hepatectomy (Service de Chirurgie Digestive, Hépato-Bilio Pancréatique, Hôpital Pitié Salpêtrière, Paris, France). Primary simian hepatocytes were isolated from liver segments collected from healthy Macaca fascicularis monkeys from CEA, Fontenay aux Roses, France. All hepatocytes were obtained using collagenase perfusion as previously described ([40]). Simian hepatocytes were immediately cryopreserved with a Nicool-Freezal controlled rate freezer (Air Liquide Santé, Marne la Vallée, France) and then used when needed after fast thawing at 37°C. Primary murine hepatocytes were isolated from liver segments collected from BALB/c mice. Human and murine hepatocytes were used directly after their isolation. Cells were seeded in 96-well plates (Falcon; Becton Dickinson Labware Europe, France) coated with collagen I (BD Bioscience, USA) at a density of 80,000 cells per well. […]\nThe toxicity of M1 toward primary hepatocytes and HepG2-CD81 cells was evaluated through the MTT {[3-(4,5-dimethyl-2-thiazolyl)-2,5-diphenyl-2H-tetrazolium bromide]} test ([42]). […] Then, MTT was replaced by a mixture of DMSO-ethanol (1:1) to dissolve formazan crystals and the absorbance was read at 540 nm on a FlexStation plate reader."}, "[4]": {"system": "P. yoelii (GFP-luc strain)", "test": "In vivo liver-stage assay in mice infected with P. yoelii sporozoites", "design": "species or system BALB/c mice", "description": "Five mice per treatment group were used. Experimental groups were treated with 50 and 100 mg/kg of M1 intraperitoneally (i.p.). Untreated infected mice and noninfected mice (infection controls), as well as primaquine-treated (50 mg/kg) mice (control drug), were also included. The drugs were administered on days −1, 0, and +1, and mice were challenged on day zero by retroorbital injection of P. yoelii (GFP-luc strain) sporozoites (10,000 per mouse). In vivo bioluminescence imaging was performed 44 h postinfection on day 2, to assess liver-stage development. When parasites were detected in the liver, treatment was continued until day 5 and in vivo imaging was performed on days 3 and 6, to evaluate a prepatent period for the blood-stage parasites in mice after the sporozoite inoculation. In vivo imaging and blood smears were performed to monitor blood-stage development using methods described previously ([45]). This experiment was performed twice.\nIVIS Spectrum (Caliper Life Science, Hanover, MD) was used to capture bioluminescence signals. Prior to analysis, the mice were injected i.p. with D-luciferin (100 mg/kg), anesthetized with isoflurane, and imaged 10 min postinjection. Images were analyzed using the Living Image 3.0 software (Caliper Life Sciences, Hanover, MD).\nIn order to study the in vivo efficacy of M1 without any hepatic CYP metabolism, we conducted an experiment using 1-aminobenzotriazole (ABT), a nonselective inhibitor of cytochrome P450 enzymes ([34], [35]). ABT was administered to mice i.p. 1 h before each treatment with 50 mg/kg gamhepathiopine for 3 days starting from the day before sporozoite inoculation."}}, "data": [{"smiles": "Cc1ccc(-c2cc3nc(NC(C)(C)C)[nH]c(=O)c3s2)cc1", "note": "[Metabolite M1, 2-(tert-Butylamino)-6-(p-tolyl)thieno[3,2-d]pyrimidin-4(3H)-one]", "values": [{"measurement": "median delay in recrudescence time", "setting": "[1]", "value": 6, "unit": "days"}, {"measurement": "EC50", "setting": "[2]", "value": 35, "unit": "nM"}, {"measurement": "CC50 at 8 days", "setting": "[3]", "value": "> 60000", "unit": "nM"}, {"measurement": "development of liver-stage parasites in vivo at day 2", "setting": "[4]; 50 mg/kg i.p., 44 h postinfection, bioluminescence", "value": "did not prevent the development of liver-stage parasites"}, {"measurement": "blood-stage parasitemia after sporozoite infection", "setting": "[4]; 50 mg/kg, blood smears days 3 and 6", "value": "reduced the burden of blood-stage parasites"}, {"measurement": "in vivo activity against the hepatic stages with ABT cotreatment", "setting": "[4]; M1 50 mg/kg with 1-aminobenzotriazole 50 mg/kg i.p.", "value": "improved"}]}]}
